These results are taken from US6894043B1, “Benzothiadiazine derivatives, preparation method and pharmaceutical compositions containing same” (Les Laboratoires Servier, priority 1999, dated 2005).

This assay has as its system AMPA receptors. In words: Excitatory fluxes induced by AMPA in Xenopus oocytes (2-electrode voltage-clamp). It is filed as cell-based. As to conditions: AMPA 30 μM; Xenopus oocytes injected with rat cortex poly(A+) mRNA; 20-24° C. The protocol: mRNAs are prepared from cerebral cortex of male Wistar rat by the guanidium thiocyanate/phenol/chloroform method. The poly(A^+)mRNAs are isolated by chromatography on oligo-dT cellulose and injected with 50 ng per oocyte. The oocytes are left for 2 to 3 days' incubation at 10° C. to enable expression of the receptors and are then stored at 8-10° C.
Electrophysiological recording is carried out in a plexiglass chamber at 20-24° C. in an OR2 medium (J. Exp. Zool., 1973, 184, 321-334) by the 2-electrode “voltage-clamp” method, with a 3rd electrode being placed in the bath to serve as reference.
All the compounds are administered via the incubation medium and the electric current is measured at the end of the period of administration. AMPA is used in a concentration of 30 μM. For each compound studied, there is determined the concentration that doubles (EC2X) or quintuples (EC5X) the intensity of the flux induced by AMPA alone (50 to 100 nA).

With `CCN1CNS(=O)(=O)c2cc(Br)ccc21` [Example 3, 7-Bromo-4-ethyl-2,3-dihydro-4H-1,2,4-benzothiadiazine 1,1-dioxide], the “EC2X (concentration that doubles the intensity of the flux induced by AMPA alone)” value was determined as 29 ± 6 µM and the “EC5X (concentration that quintuples the intensity of the flux induced by AMPA alone)” value worked out at 78 ± 16 µM.

For the compound `CCN1CNS(=O)(=O)c2cc(I)ccc21` [Example 4, 4-Ethyl-7-iodo-2,3-dihydro-4H-1,2,4-benzothiadiazine 1,1-dioxide], the “EC2X (concentration that doubles the intensity of the flux induced by AMPA alone)” value was determined as 95 ± 31 µM and the “EC5X (concentration that quintuples the intensity of the flux induced by AMPA alone)” value was over 300 µM.
